PMC6978363, “Chaperone mediated detection of small molecule target binding in cells” (Nature Communications, 2020)

What was measured:
Assay in all cases: biochemical
TAO2 = biological target: T1, TAO2 (Homo sapiens, UniProt Q9UL54); settings: read-out: % Inhibition (at 10mM)
T1 construct: gene TAOK2

Axl = Axl (Homo sapiens, UniProt P30530); settings: read-out: % Inhibition (at 10mM)
PKD1 = biological target: T2, PKD1 (Homo sapiens, UniProt Q15139); settings: read-out: % Inhibition (at 10mM)
T2 construct: gene PRKD1

Mer = biological target: T3, Mer (Homo sapiens, UniProt Q12866); settings: read-out: % Inhibition (at 10mM)
T3 construct: gene MERTK

SRPK2 = SRPK2 (Homo sapiens, UniProt P78362); settings: read-out: % Inhibition (at 10mM)
MAPKAPK3 = MAPKAPK3 (Homo sapiens, UniProt Q16644); settings: read-out: % Inhibition (at 10mM)
Chain of MAPKAPK3 (Q16644 whole entry): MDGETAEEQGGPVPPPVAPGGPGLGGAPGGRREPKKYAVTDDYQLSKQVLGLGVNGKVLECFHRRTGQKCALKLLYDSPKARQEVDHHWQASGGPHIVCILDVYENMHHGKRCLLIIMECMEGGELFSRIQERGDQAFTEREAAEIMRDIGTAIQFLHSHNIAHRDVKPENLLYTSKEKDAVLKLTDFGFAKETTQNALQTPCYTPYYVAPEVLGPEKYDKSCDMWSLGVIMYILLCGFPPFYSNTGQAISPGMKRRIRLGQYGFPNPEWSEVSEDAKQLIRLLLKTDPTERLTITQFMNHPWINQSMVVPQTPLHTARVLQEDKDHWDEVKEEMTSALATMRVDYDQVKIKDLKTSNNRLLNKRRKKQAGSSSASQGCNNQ

FAK = biological target: T4, FAK (Homo sapiens, UniProt Q05397); settings: read-out: % Inhibition (at 10mM)
T4 construct: gene PTK2

ERK1 = biological target: T5, ERK1 (Homo sapiens, UniProt P27361); settings: read-out: % Inhibition (at 10mM)
T5 construct: gene MAPK3

PKC_zeta = biological target: T6, PKC_zeta (Homo sapiens, UniProt Q05513); settings: read-out: % Inhibition (at 10mM)
T6 construct: gene PRKCZ

MYLK2(skMLCK) = MYLK2(skMLCK) (Homo sapiens, UniProt Q9H1R3); settings: read-out: % Inhibition (at 10mM)
MST3 = biological target: T7, MST3 (Homo sapiens, UniProt Q9Y6E0); settings: read-out: % Inhibition (at 10mM)
T7 construct: gene STK24

Aurora_B = biological target: T8, Aurora_B (Homo sapiens, UniProt Q96GD4); settings: read-out: % Inhibition (at 10mM)
T8 construct: gene AURKB

p38_beta = biological target: T9, p38_beta (Homo sapiens, UniProt Q15759); settings: read-out: % Inhibition (at 10mM)
T9 construct: gene MAPK11

MAP4K4 = MAP4K4 (Homo sapiens, UniProt O95819); settings: read-out: % Inhibition (at 10mM)
GRK2 = GRK2 (Homo sapiens, UniProt P25098); settings: read-out: % Inhibition (at 10mM)
TSSK1 = biological target: T10, TSSK1 (Homo sapiens, UniProt Q9BXA7); settings: read-out: % Inhibition (at 10mM)
T10 construct: gene TSSK1B

IGF1R = IGF1R (Homo sapiens, UniProt P08069); settings: read-out: % Inhibition (at 10mM)
Mink1 = Mink1 (Homo sapiens, UniProt Q8N4C8); settings: read-out: % Inhibition (at 10mM)
Chain of Mink1 (Q8N4C8 whole entry): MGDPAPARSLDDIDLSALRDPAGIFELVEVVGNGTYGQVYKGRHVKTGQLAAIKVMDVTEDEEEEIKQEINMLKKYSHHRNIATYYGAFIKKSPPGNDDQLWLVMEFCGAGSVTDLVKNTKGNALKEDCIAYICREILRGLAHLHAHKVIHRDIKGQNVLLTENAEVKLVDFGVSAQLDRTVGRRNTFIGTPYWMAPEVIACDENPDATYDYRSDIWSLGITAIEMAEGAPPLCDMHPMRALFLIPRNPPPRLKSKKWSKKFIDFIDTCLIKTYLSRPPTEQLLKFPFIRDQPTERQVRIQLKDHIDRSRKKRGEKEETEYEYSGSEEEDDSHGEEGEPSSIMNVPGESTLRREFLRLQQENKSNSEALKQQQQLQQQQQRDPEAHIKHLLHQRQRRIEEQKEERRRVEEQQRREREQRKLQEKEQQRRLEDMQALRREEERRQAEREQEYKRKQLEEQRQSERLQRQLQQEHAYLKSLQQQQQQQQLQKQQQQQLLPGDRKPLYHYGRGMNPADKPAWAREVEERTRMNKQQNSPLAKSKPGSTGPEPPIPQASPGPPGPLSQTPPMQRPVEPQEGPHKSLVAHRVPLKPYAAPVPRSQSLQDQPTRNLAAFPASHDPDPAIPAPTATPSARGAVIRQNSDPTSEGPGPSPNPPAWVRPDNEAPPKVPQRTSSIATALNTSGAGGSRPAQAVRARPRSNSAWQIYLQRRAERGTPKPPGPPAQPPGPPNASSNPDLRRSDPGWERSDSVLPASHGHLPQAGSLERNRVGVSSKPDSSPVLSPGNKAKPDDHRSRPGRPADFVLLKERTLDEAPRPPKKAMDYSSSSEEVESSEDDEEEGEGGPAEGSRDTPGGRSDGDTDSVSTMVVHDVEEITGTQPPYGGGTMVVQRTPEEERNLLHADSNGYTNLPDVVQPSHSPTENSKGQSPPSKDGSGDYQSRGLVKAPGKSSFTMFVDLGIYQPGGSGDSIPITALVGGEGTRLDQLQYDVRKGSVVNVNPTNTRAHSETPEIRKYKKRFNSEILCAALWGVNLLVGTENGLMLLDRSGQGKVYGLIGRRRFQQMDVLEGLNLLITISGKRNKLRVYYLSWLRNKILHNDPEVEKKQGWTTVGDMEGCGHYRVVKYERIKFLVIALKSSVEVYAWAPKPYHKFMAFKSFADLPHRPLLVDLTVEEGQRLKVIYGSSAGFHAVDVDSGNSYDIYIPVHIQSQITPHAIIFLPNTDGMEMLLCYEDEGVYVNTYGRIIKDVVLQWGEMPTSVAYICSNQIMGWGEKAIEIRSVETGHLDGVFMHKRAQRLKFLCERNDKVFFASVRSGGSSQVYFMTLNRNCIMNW

PhK_gamma2 = biological target: T11, PhK_gamma2 (Homo sapiens, UniProt P15735); settings: read-out: % Inhibition (at 10mM)
T11 construct: gene PHKG2

AKT2 = AKT2 (Homo sapiens, UniProt P31751); settings: read-out: % Inhibition (at 10mM)
Chain of AKT2 (P31751 whole entry): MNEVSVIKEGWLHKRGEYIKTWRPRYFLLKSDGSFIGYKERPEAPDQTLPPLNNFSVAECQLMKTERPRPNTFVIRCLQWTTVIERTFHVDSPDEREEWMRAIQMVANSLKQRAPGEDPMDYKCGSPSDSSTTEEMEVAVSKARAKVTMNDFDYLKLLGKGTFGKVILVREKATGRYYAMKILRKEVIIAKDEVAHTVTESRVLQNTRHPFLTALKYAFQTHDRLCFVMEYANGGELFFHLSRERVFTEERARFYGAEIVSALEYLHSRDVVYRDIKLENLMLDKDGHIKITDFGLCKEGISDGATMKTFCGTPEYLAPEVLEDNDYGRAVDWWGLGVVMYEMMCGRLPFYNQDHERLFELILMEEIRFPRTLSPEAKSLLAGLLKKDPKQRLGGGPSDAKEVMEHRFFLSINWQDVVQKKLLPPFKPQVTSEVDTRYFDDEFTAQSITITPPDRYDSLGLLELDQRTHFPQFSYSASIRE

PRAK = biological target: T12, PRAK (Homo sapiens, UniProt Q8IW41); settings: read-out: % Inhibition (at 10mM)
T12 construct: gene MAPKAPK5
T12 sequence (Q8IW41 whole entry): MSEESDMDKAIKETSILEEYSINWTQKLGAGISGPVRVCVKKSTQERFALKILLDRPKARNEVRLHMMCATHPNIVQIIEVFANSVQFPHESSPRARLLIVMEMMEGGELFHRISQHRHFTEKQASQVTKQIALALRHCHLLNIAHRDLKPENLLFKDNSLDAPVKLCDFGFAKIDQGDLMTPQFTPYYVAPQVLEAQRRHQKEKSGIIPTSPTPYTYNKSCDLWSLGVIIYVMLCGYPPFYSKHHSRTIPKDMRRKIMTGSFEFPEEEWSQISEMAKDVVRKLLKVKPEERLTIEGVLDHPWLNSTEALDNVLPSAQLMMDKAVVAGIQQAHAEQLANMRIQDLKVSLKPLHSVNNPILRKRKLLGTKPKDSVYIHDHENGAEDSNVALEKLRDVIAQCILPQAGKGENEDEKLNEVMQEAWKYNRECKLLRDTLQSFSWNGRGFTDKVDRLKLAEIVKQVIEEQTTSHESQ

PLK1 = PLK1 (Homo sapiens, UniProt P53350); settings: read-out: % Inhibition (at 10mM)
GRK5 = GRK5 (Homo sapiens, UniProt P34947); settings: read-out: % Inhibition (at 10mM)
Fer = Fer (Homo sapiens, UniProt P16591); settings: read-out: % Inhibition (at 10mM)
IRR = biological target: T13, IRR (Homo sapiens, UniProt P14616); settings: read-out: % Inhibition (at 10mM)
T13 construct: gene INSRR

PDK1(direct) = biological target: T14, PDK1(direct) (Homo sapiens, UniProt O15530); settings: read-out: % Inhibition (at 10mM)
T14 construct: gene PDPK1; direct

DMPK2 = biological target: T15, DMPK2 (Homo sapiens, UniProt Q6DT37); settings: read-out: % Inhibition (at 10mM)
T15 construct: gene CDC42BPG

PDGFR_alpha = biological target: T16, PDGFR_alpha (Homo sapiens, UniProt P16234); settings: read-out: % Inhibition (at 10mM)
T16 construct: gene PDGFRA

p38_gamma = biological target: T17, p38_gamma (Homo sapiens, UniProt P53778); settings: read-out: % Inhibition (at 10mM)
T17 construct: gene MAPK12

CLK1 = CLK1 (Homo sapiens, UniProt P49759); settings: read-out: % Inhibition (at 10mM)
Chain of CLK1 (P49759 whole entry): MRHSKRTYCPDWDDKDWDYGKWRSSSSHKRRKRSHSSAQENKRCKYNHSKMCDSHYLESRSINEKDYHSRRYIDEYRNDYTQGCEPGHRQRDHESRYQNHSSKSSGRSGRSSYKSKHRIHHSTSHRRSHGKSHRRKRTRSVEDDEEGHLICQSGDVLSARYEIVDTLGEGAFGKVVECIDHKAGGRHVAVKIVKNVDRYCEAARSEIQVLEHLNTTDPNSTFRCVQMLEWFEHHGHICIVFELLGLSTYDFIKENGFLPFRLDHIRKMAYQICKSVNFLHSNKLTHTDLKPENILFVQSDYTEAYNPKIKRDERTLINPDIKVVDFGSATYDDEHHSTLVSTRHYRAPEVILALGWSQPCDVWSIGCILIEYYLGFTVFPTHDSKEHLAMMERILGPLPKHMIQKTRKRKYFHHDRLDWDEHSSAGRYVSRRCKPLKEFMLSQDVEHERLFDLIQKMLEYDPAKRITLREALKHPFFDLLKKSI

Bmx = Bmx (Homo sapiens, UniProt P51813); settings: read-out: % Inhibition (at 10mM)
EphB4 = EphB4 (Homo sapiens, UniProt P54760); settings: read-out: % Inhibition (at 10mM)
Chain of EphB4 (P54760 whole entry): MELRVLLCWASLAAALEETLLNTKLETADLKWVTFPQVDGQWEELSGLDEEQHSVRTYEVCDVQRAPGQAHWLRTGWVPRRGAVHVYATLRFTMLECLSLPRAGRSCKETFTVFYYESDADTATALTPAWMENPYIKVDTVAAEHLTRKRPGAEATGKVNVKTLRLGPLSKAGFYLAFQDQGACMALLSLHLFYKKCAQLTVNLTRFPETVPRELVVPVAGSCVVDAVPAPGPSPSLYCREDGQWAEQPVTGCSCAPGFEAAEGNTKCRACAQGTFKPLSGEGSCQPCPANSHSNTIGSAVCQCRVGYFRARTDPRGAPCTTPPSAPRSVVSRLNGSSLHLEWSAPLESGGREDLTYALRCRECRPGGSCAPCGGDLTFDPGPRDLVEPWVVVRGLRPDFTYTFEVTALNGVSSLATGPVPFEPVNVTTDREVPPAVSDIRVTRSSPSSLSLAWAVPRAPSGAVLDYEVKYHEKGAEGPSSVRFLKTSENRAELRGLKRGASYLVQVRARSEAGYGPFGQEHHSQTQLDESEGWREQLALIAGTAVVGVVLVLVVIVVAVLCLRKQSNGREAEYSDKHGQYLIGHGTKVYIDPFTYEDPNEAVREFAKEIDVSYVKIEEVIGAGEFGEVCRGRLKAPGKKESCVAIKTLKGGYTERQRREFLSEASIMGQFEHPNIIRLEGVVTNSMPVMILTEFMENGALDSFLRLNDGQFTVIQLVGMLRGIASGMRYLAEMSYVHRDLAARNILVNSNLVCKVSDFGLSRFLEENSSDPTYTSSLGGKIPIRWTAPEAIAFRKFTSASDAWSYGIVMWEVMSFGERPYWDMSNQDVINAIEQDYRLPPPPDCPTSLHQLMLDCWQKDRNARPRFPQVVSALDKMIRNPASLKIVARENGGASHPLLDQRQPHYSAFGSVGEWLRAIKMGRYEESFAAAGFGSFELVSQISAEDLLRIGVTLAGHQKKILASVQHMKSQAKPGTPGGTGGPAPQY

Aurora_A = biological target: T18, Aurora_A (Homo sapiens, UniProt O14965); settings: read-out: % Inhibition (at 10mM)
T18 construct: gene AURKA

MKNK1 = MKNK1 (Homo sapiens, UniProt Q9BUB5); settings: read-out: % Inhibition (at 10mM)
IKK_epsilon = biological target: T19, IKK_epsilon (Homo sapiens, UniProt Q14164); settings: read-out: % Inhibition (at 10mM)
T19 construct: gene IKBKE

LTK = LTK (Homo sapiens, UniProt P29376)
Excerpt: (§1) The detection of EGFR (another HER family member) was ambiguous because the peptides used to detect it were also present in ERBB2.

DYRK1B = DYRK1B (Homo sapiens, UniProt Q9Y463)
Chain of DYRK1B (Q9Y463 whole entry): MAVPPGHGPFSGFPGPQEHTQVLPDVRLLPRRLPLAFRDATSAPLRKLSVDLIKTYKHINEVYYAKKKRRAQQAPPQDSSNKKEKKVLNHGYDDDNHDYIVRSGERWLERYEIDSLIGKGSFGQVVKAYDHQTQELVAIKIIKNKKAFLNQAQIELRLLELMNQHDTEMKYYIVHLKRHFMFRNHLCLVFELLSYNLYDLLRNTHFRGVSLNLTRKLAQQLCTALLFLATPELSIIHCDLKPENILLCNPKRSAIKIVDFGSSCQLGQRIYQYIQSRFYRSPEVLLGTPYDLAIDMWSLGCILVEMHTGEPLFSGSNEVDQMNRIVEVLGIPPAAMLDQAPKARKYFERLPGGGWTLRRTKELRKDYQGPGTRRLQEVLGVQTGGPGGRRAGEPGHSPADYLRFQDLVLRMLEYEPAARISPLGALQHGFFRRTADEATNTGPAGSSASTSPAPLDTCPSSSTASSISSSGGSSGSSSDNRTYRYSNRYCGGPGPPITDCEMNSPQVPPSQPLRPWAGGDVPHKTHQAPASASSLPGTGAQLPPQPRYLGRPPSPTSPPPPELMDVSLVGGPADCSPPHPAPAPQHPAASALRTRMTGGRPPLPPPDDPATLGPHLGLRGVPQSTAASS
Excerpt: as §1

## CC(C)(O)CC(=O)NCCn1ccc2ncnc(Nc3ccc(Oc4cccc(C(F)(F)F)c4)c(Cl)c3)c21 [TAK-285]
TAO2
  inhibition: -5%
Axl
  inhibition: 5%
PKD1
  inhibition: 76%
Mer
  inhibition: 49.5%
SRPK2
  inhibition: 2.5%
MAPKAPK3
  inhibition: 14.5%
FAK
  inhibition: 7.5%
ERK1
  inhibition: 3%
PKC_zeta
  inhibition: 8.5%
MYLK2(skMLCK)
  inhibition: -3%
MST3
  inhibition: 7%
Aurora_B
  inhibition: 68%
p38_beta
  inhibition: 1%
MAP4K4
  inhibition: -0.5%
GRK2
  inhibition: 0%
TSSK1
  inhibition: -6.5%
IGF1R
  inhibition: 5%
Mink1
  inhibition: 7%
PhK_gamma2
  inhibition: -0.5%
AKT2
  inhibition: 5.5%
PRAK
  inhibition: 3.5%
PLK1
  inhibition: 8%
GRK5
  inhibition: -4.5%
Fer
  inhibition: 12.5%
IRR
  inhibition: 6.5%
PDK1(direct)
  inhibition: 9%
DMPK2
  inhibition: 2%
PDGFR_alpha
  inhibition: 1.5%
p38_gamma
  inhibition: 12.5%
CLK1
  inhibition: 10.5%
Bmx
  inhibition: 13.5%
EphB4
  inhibition: 8%
Aurora_A
  inhibition: 17.5%
MKNK1
  inhibition: 6%
IKK_epsilon
  inhibition: 5.5%
LTK
  inhibition at 10 µM: 0.5%
DYRK1B
  inhibition at 10 µM: 3%
